US12441707B2, “Indazole compounds” (TYRA BIOSCIENCES, INC., priority 2019, dated 2025)
pIC50, pKd: −log10 of the molar value. Read-outs that look alike come from different tables or passages of the source.

Assays:
FGFR2 [1] = target: T1, FGFR2 (Homo sapiens (Human), UniProt P21802); test: biochemical
FGFR1 = FGFR1 (Homo sapiens (Human), UniProt P11362); test: Kinase binding assay (kinase-tagged T7 phage, liganded affinity beads, qPCR); details: binding constant; 0.9% DMSO
FGFR3 = FGFR3 (Homo sapiens (Human), UniProt P22607); test: as above; details: binding constant; 0.9% DMSO
Chain of FGFR3 (P22607 23-806): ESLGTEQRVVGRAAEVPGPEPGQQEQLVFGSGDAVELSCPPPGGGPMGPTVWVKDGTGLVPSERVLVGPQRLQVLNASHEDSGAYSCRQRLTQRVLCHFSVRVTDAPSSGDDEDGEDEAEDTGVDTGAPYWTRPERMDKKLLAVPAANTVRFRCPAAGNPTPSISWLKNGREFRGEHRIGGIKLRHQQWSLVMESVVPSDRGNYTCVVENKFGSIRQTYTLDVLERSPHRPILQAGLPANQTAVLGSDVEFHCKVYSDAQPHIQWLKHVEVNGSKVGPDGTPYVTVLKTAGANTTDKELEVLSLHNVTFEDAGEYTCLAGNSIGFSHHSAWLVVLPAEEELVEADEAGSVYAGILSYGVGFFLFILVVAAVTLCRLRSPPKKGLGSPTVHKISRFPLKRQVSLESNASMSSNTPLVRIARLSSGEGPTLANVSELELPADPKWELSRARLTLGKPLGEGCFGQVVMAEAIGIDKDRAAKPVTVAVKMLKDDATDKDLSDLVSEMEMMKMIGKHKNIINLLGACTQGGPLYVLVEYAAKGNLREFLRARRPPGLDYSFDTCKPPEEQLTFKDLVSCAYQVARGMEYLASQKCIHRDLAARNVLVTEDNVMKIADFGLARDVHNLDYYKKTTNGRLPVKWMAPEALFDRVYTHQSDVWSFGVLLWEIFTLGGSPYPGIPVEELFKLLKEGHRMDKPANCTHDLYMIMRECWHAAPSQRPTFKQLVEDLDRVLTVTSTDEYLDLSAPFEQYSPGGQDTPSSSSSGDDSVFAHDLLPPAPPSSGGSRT

FGFR2 [2] = target: T1, FGFR2
[3] = tested on: KG-1 cells (Acute Myeloid Leukemia, FGFR1OP2-FGFR1 fusion); test: KG-1 cancer cell line cell viability assay (CellTiter-Glo 2.0); format: cell-based; details: Homo sapiens, 72 hours
Text: (§1) Experimental Purpose: To detect the change of intracellular ATP by Cell Titer-Glo® and to evaluate the inhibitory effect of the compounds on cancer cell lines by determining the in vitro IC50 value of the compounds.
(§2) RT112/84 and KG-1 cell lines were purchased from American Type Culture Collection (Manassas, VA). UM-UC-14 cell line was purchased from Sigma (St. Louis, MO).

[4] = tested on: RT112/84 cells (Bladder Cancer, FGFR3-TACC3 fusion); test: RT112/84 cell viability assay (CellTiter-Glo 2.0); format: cell-based; details: Homo sapiens, 72 hours
Text: Example B. RT112/84 Cell Viability Assay
RT112/84 cell line was purchased from American Type Culture Collection (Manassas, VA).
as §1, §2

[5] = tested on: UM-UC-14 cells (Bladder Cancer, FGFR3(S249C)); test: UM-UC-14 cancer cell line cell viability assay (CellTiter-Glo 2.0); format: cell-based; details: UMUC14, 72 hours
Text: as §1, §2

[6] = target: FGFR3-BAIAP2L1 Ba/F3 cells
Chain of FGFR3-BAIAP2L1 Ba/F3 cells (P22607 23-806 limits assumed, change not shown): as the sequence (P22607 23-806) above

T1 sequence (P21802 22-821): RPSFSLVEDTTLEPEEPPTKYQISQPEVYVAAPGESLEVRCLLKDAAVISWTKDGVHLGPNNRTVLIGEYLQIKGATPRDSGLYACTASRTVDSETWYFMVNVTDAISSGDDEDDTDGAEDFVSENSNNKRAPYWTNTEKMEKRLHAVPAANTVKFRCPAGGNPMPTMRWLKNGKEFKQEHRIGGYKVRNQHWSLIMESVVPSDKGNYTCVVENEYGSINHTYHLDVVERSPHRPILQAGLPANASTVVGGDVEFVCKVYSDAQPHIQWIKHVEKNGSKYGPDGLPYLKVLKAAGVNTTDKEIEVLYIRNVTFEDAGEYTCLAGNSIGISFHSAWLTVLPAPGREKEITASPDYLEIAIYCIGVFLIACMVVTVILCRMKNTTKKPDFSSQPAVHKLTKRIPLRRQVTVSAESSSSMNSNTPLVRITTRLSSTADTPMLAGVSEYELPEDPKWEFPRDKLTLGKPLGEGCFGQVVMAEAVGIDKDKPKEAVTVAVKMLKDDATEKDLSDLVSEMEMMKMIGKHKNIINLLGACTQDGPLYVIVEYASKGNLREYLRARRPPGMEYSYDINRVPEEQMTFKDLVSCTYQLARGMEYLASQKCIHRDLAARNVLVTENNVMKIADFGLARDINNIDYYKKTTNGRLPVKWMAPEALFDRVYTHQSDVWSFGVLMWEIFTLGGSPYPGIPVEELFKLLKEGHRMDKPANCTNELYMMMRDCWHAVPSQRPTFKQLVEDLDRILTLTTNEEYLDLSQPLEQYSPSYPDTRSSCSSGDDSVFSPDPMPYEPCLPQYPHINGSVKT
Chain of FGFR1 (P11362 22-822): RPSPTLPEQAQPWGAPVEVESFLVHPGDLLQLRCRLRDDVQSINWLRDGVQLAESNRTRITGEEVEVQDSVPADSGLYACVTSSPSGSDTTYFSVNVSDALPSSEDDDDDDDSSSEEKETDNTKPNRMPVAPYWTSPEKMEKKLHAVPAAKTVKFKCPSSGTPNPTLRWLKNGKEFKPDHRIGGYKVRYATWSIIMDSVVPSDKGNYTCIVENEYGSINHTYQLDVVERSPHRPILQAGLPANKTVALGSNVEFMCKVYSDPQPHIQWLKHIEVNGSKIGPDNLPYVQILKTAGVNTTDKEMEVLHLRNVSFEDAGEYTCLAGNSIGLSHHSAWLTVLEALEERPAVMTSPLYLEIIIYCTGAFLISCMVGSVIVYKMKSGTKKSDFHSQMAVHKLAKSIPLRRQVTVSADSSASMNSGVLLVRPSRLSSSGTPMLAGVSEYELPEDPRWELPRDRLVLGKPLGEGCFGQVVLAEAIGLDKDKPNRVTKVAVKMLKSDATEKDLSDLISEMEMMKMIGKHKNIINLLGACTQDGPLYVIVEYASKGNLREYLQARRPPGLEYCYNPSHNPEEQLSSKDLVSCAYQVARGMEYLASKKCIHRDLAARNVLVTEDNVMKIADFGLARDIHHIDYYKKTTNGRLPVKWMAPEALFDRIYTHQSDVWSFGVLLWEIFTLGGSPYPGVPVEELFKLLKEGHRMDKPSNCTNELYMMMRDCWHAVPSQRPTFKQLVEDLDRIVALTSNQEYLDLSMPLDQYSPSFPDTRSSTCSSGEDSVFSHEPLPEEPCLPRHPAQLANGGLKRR

SMILES | IC50 [3] [nM] | IC50 [4] [nM] | IC50 [5] [nM] | further results
CC(Oc1ccc2[nH]nc(-c3cccc(N=S(C)(C)=O)c3)c2c1)c1c(Cl)cncc1Cl (stereo not shown) [Example 1, [3-[5-[1-(3,5-dichloro-4-pyridyl)ethoxy]-1H-indazol-3-yl]phenyl]imino-dimethyl-oxo-λ^6-sulfane] |  |  |  | pKd (FGFR2 [1]): 6.26; Kd (FGFR1): 770 nM; Kd (FGFR3): 76 nM
CC(Oc1ccc2[nH]nc(-c3cccc(S(C)(=N)=O)c3)c2c1)c1c(Cl)cncc1Cl (stereo not shown) [Example 2, (3-(5-(1-(3,5-Dichloropyridin-4-yl)ethoxy)-1H-indazol-3-yl)phenyl)(imino) (methyl)-λ^6-6-sulfanone] |  |  |  | Kd (FGFR1): 1200 nM; pKd (FGFR2 [2]): 6.40; Kd (FGFR3): 120 nM
C[C@@H](Oc1ccc2[nH]nc(/C=C/c3ccc(N=S(C)(C)=O)nc3)c2c1)c1c(Cl)cncc1Cl [Example 3] | 0.4 | 20 |  | 
CC(Oc1ccc2[nH]nc(C(=O)Nc3ccc(S(C)(=N)=O)nc3)c2c1)c1c(Cl)cncc1Cl (stereo not shown) [Example 6, 5-(1-(3,5-Dichloropyridin-4-yl)ethoxy)-N-(6-(S-methylsulfonimidoyl)pyridine-3-yl)-1H-indazole-3-carboxamide] |  |  |  | Kd (FGFR1): 260 nM; pKd (FGFR2 [2]): 6.92; Kd (FGFR3): 47 nM
C[C@@H](Oc1ccc2[nH]nc(-c3ccc(N4CCS(=N)(=O)CC4)nc3)c2c1)c1c(Cl)cncc1Cl [Example 12, (R)-4-(5-(5-(1-(3,5-Dichloropyridin-4-yl)ethoxy)-1H-indazol-3-yl)pyridin-2-yl)-1-imino-1λ^6-thiomorpholine 1-oxide] | 45 | 4.3 | 5.9 | 
C[C@@H](Oc1ccc2[nH]nc(-c3ccc(N4CCS(=N)(=O)CC4)cc3)c2c1)c1c(Cl)cncc1Cl [Example 13, (R)-4-(4-(5-(1-(3,5-Dichloropyridin-4-yl)ethoxy)-1H-indazol-3-yl)phenyl)-1-imino-1λ^6-thiomorpholine 1-oxide] |  | 16 |  | 
C[C@H](Oc1ccc2[nH]nc(-c3ccc(N4CCS(=N)(=O)CC4)cc3)c2c1)c1c(Cl)cncc1Cl [Example 14, (S)-4-(4-(5-(1-(3,5-Dichloropyridin-4-yl)ethoxy)-1H-indazol-3-yl)phenyl)-1-imino-1λ^6-thiomorpholine 1-oxide] |  | 75 |  | 
C[C@@H](Oc1ccc2[nH]nc(NC(=O)c3ccc(N=S(C)(C)=O)nc3)c2c1)c1c(Cl)cncc1Cl [Example 19, (R)—N-(5-(1-(3,5-Dichloropyridin-4-yl)ethoxy)-1H-indazol-3-yl)-6-((dimethyl(oxo)-λ^6-sulfaneylidene)amino)nicotinamide] |  | 39 |  | 
CN=S1(=O)CCN(c2ccc(-c3n[nH]c4ccc(O[C@H](C)c5c(Cl)cncc5Cl)cc34)cn2)CC1 [Example 24, 4-[5-[5-[(1R)-1-(3,5-dichloro-4-pyridyl)ethoxy]-1H-indazol-3-yl]-2-pyridyl]-1-methylimino-1,4-thiazinane 1-oxide] | 169 | 8.4 | 12 | 
C[C@@H](Oc1ccc2[nH]nc(-c3cnc(N=S(C)(C)=O)c(F)c3)c2c1)c1c(Cl)cncc1Cl [Example 25, [5-[5-[(1R)-1-(3,5-dichloro-4-pyridyl)ethoxy]-1H-indazol-3-yl]-3-fluoro-2-pyridyl]imino-dimethyl-oxo-λ^6-sulfane] | 81 | 14 | 19 | 
Cc1ncc(Cl)c([C@@H](C)Oc2ccc3[nH]nc(-c4ccc(N=S(C)(C)=O)nc4)c3c2)c1Cl [Example 30, [5-[5-[(1R)-1-(3,5-dichloro-2-methyl-4-pyridyl)ethoxy]-1H-indazol-3-yl]-2-pyridyl]imino-dimethyl-oxo-λ^6-sulfane] |  | 38 | 47 | 
C[C@@H](Oc1ccc2[nH]nc(-c3ccc(N=S4(=O)CCCC4)nc3)c2c1)c1c(Cl)cncc1Cl [Example 32, 1-[[5-[5-[(1R)-1-(3,5-Dichloro-4-pyridyl)ethoxy]-1H-indazol-3-yl]-2-pyridyl]imino]thiolane 1-oxide] |  |  |  | pKd (FGFR2 [1]): 7.82; Kd (FGFR1): 14 nM; Kd (FGFR3): 1.9 nM

The next lines start with results.

IC50 [3] [nM] | IC50 [4] [nM] | IC50 [5] [nM] | SMILES | further results
103 | 11 | 19 | C[C@@H](Oc1ccc2[nH]nc(-c3ccc(N=S(C)(C)=O)nc3)c2c1)c1c(Cl)cncc1Cl [Example 21, (R)-((5-(5-(1-(3,5-Dichloropyridin-4-yl)ethoxy)-1H-indazol-3-yl)pyridin-2-yl)imino)dimethyl-λ^6-sulfanone] | 
123 | 22 | 29 | C[C@@H](Oc1ccc2[nH]nc(-c3cnc(N=S(C)(C)=O)nc3)c2c1)c1c(Cl)cncc1Cl [Example 26, [5-[5-[(1R)-1-(3,5-dichloro-4-pyridyl)ethoxy]-1H-indazol-3-yl]pyrimidin-2-yl]imino-dimethyl-oxo-λ^6-sulfane] | pIC50 [6]: 7.74
 | 28 | 44 | C[C@@H](Oc1ccc2[nH]nc(-c3ccc(S(C)(=N)=O)nc3)c2c1)c1c(Cl)cncc1Cl (stereo partly drawn) [Example 28, [5-[5-[(1R)-1-(3,5-dichloro-4-pyridyl)ethoxy]-1H-indazol-3-yl]-2-pyridyl]-imino-methyl-oxo-λ^6-sulfane] | 
